Patent publication US11896574B2, “Treatment of metabolic disorders in feline animals” (Boehringer Ingelheim Vetmedica GmbH, priority 2013, dated 2024)

Assay: Physicochemical properties of the crystalline complex

## N#Cc1ccc([C@@H]2O[C@H](CO)[C@@H](O)[C@H](O)[C@H]2O)cc1Cc1ccc(C2CC2)cc1.O=C(O)[C@@H]1CCCN1 [crystalline complex]
  tendency to absorb moisture: does not show a high tendency to absorb moisture
Various environmental conditions and during production of a medicament
  physical and chemical stability: high physical and chemical stability
